Data published in US20080176339A1, “NEUTRAL LABELING REACTANTS AND CONJUGATES DERIVED THEREOF” (WALLAC OY, priority 2006, published 2008).
Values belong to the compound of their own block, whether it stands above or below them.

Experiments:
[1] = tested on: antiserum; test: Performance of thyroxine tracers in DELFIA based T4-assay compared to AutoDELFIA Neonatal T4 kit; details: up to one week in instrument-like conditions
Experimental: The assay concentrations of the antiserum were optimized for each tracer individually, and the analytical sensitivities of the optimized standard curves were defined. The correlation between the methods were studied with a small sample panel. The on-board stability was tested up to one week in instrument-like conditions. Sensitivity to the interference of EDTA-containing samples was also studied.

[2] = in vivo; cited from earlier work
[3] = Stabilities of chelates in DELFIA Enhancement Solution and DELFIA Inducer (dissociation of europium followed by time-resolved fluorometer); assay type: physicochemical; details: RT (25° C.)
Experimental: The chelates (ca 1 mg) were dissolved either in Inducer or Enhanchement Solution. The dissociation of the europium at 25° C. were followed using a time-resolved fluorometer. The results are shown below

On board stability [1]: Better
Compound: O=C(O)CN(CCN(CC(=O)O)CC(Cc1ccc(NC(=S)NCCCCCC(=O)NC(Cc2cc(I)c(Oc3cc(I)c(O)c(I)c3)c(I)c2)C(=O)O)cc1)N(CC(=O)O)CC(=O)O)CC(=O)O (centres unmarked) [Compound T4-DTPA]

Compound: O=C([O-])CN(CCN(CC(=O)[O-])CC(=O)O)CCN(CC(=O)[O-])CC(=O)O.[Gd+3] [Gd-DTPA]
Crossing of intact blood-brain barrier [2]: does not cross an intact blood-brain barrier

Approximate time needed for complete dissociation, Enhancer ([3]; DELFIA Enhancement Solution): 30 min
Approximate time needed for complete dissociation, Inducer ([3]; DELFIA Inducer): <5 min
Compound: Europium Chelate of 2-(4-aminobenzyl)-1,7-bis(aminocarbonylmethyl)-1,4,7-tris(carboxymethyl)-1,4,7-triazaheptane [Compound 10]

On board stability [1]: Better
Compound: NC(=O)CN(CCN(CC(=O)O)CC(Cc1ccc(NC(=S)NCCCCCC(=O)NC(Cc2cc(I)c(Oc3cc(I)c(O)c(I)c3)c(I)c2)C(=O)O)cc1)N(CC(N)=O)CC(=O)O)CC(=O)O (centres unmarked) [Compound 13]
